The record followed here is patent US11020395B2, “Cycloalkyl substituted triazole compounds as agonists of the APJ receptor” (AMGEN INC., priority 2016, dated 2021).

The target of the assay is human APJ receptor (Homo sapiens (Human), UniProt P35414). In words: [35S]GTPγS binding assay on membranes from CHO cells stably expressing human APJ receptor. The format is biochemical. Conditions: [35S]GTPγS SPA, read-out: Activity hAPJ SPA EC50 IP. The method in brief: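 Agonist-stimulated [35S]GTPγS binding measured on membranes of a stable human APJ CHO line, 90 min at room temperature, with GDP, MgCl2 and NaCl levels optimized beforehand. Means of independent runs fitted by non-linear regression to give EC50.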
In general terms: GTPγS is a poorly hydrolysed GTP analogue; its binding reports G protein activation.

Sequence of human APJ receptor (P35414 whole entry): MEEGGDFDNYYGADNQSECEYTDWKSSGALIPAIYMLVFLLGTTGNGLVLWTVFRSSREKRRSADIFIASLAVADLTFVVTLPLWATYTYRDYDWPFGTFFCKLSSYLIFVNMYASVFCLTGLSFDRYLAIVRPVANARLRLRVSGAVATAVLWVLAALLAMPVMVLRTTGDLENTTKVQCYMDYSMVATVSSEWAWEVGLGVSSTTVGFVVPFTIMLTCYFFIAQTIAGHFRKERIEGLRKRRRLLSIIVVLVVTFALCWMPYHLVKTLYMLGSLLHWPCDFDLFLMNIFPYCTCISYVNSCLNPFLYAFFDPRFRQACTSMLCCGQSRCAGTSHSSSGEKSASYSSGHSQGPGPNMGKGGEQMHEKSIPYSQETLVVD

Regarding `COc1cccc(OC)c1-n1c(NS(=O)(=O)[C@@H](C)[C@H](OC)c2ncc(C)cn2)nnc1[C@H]1C[C@H](Cl)C1` (single isomer, unassigned) [Example 191.0, (1R,2S)-N-(5-((1r,3S)-3-chlorocyclobutyl)-4-(2,6-dimethoxyphenyl)-4H-1,2,4-triazol-3-yl)-1-methoxy-1-(5-methylpyrimidin-2-yl)propane-2-sulfonamide or (1R,2S)-N-(5-((1s,3R)-3-chlorocyclobutyl)-4-(2,6-dimethoxyphenyl)-4H-1,2,4-triazol-3-yl)-1-methoxy-1-(5-methylpyrimidin-2-yl)propane-2-sulfonamide], the EC50 was found to be 7.5 nM.

As for `COc1ncnc(OC)c1-n1c(NS(=O)(=O)[C@@H](C)[C@H](OC)c2ncc(Cl)cn2)nnc1[C@H]1CC[C@@H](C(F)(F)F)CC1` (single isomer, unassigned) [Example 173.0, (1R,2S)-1-(5-chloropyrimidin-2-yl)-N-(4-(4,6-dimethoxypyrimidin-5-yl)-5-((1s,4R)-4-(trifluoromethyl)cyclohexyl)-4H-1,2,4-triazol-3-yl)-1-methoxypropane-2-sulfonamide or (1R,2S)-1-(5-chloropyrimidin-2-yl)-N-(4-(4,6-dimethoxypyrimidin-5-yl)-5-((1r,4S)-4-(trifluoromethyl)cyclohexyl)-4H-1,2,4-triazol-3-yl)-1-methoxypropane-2-sulfonamide], the 50% effective concentration (EC50) worked out at 13 nM.

Turning to `COc1cccc(OC)c1-n1c(NS(=O)(=O)[C@@H](C)[C@H](C)c2ncc(C)cn2)nnc1[C@H]1C[C@H](Cl)C1` (single isomer, unassigned) [Example 194.0, (2S,3R)-N-(5-((1r,3S)-3-chlorocyclobutyl)-4-(2,6-dimethoxyphenyl)-4H-1,2,4-triazol-3-yl)-3-(5-methylpyrimidin-2-yl)butane-2-sulfonamide or (2S,3R)-N-(5-((1s,3R)-3-chlorocyclobutyl)-4-(2,6-dimethoxyphenyl)-4H-1,2,4-triazol-3-yl)-3-(5-methylpyrimidin-2-yl)butane-2-sulfonamide], the EC50 is 2.5 nM.

Regarding “(1R,2S)-1-(5-chloropyrimidin-2-yl)-N-(4-(2,6-dimethoxyphenyl)-5-((R)-2,2-dimethylcyclopropyl)-4H-1,2,4-triazol-3-yl)-1-methoxypropane-2-sulfonamide or (1R,2S)-1-(5-chloropyrimidin-2-yl)-N-(4-(2,6-dimethoxyphenyl)-5-((S)-2,2-dimethylcyclopropyl)-4H-1,2,4-triazol-3-yl)-1-methoxypropane-2-sulfonamide [Example 22.0]”, the EC50 came out at 0.29 nM.

`COc1ncnc(OC)c1-n1c(NS(=O)(=O)[C@@H](C)[C@H](OC)c2ncc(Cl)cn2)nnc1C1CC(OC)(OC)C1` [Example 238.0, (1R,25)-1-(5-chloro-2-pyrimidinyl)-N-(5-(3,3-dimethoxycyclobutyl)-4-(4,6-dimethoxy-5-pyrimidinyl)-4H-1,2,4-triazol-3-yl)-1-methoxy-2-propanesulfonamide]: the EC50 is 120 nM.

As to `COc1ncnc(OC)c1-n1c(NS(=O)(=O)[C@@H](C)[C@H](C)c2ncc(C)cn2)nnc1C1CCC1` [Example 4.0, (2S,3R)-N-(5-cyclobutyl-4-(4,6-dimethoxy-5-pyrimidinyl)-4H-1,2,4-triazol-3-yl)-3-(5-methyl-2-pyrimidinyl)-2-butanesulfonamide], the 50% effective concentration (EC50) is 21 nM.

In the case of `COc1ncnc(OC)c1-n1c(NS(=O)(=O)[C@@H](C)[C@H](OC)c2ncc(Cl)cn2)nnc1[C@H]1C[C@]2(CC2(F)F)C1` (single isomer, unassigned) [Example 204.0, (1R,2S)-1-(5-chloropyrimidin-2-yl)-N-(5-((3R,5s)-1,1-difluorospiro[2.3]hexan-5-yl)-4-(4,6-dimethoxypyrimidin-5-yl)-4H-1,2,4-triazol-3-yl)-1-methoxypropane-2-sulfonamide or (1R,2S)-1-(5-chloropyrimidin-2-yl)-N-(5-((3S,5r)-1,1-difluorospiro[2.3]hexan-5-yl)-4-(4,6-dimethoxypyrimidin-5-yl)-4H-1,2,4-triazol-3-yl)-1-methoxypropane-2-sulfonamide], the EC50 was 34 nM.

As for `COc1ncnc(OC)c1-n1c(NS(=O)(=O)[C@@H](C)[C@H](OC)c2ncc(Cl)cn2)nnc1C1CCCCC1` [Example 6.0, (1R,2S)-1-(5-chloro-2-pyrimidinyl)-N-(5-cyclohexyl-4-(4,6-dimethoxy-5-pyrimidinyl)-4H-1,2,4-triazol-3-yl)-1-methoxy-2-propanesulfonamide], the concentration giving a half-maximal response (EC50) is 7.5 nM.

Turning to “(1R,2S)-1-(5-chloropyrimidin-2-yl)-N-(4-(4,6-dimethoxypyrimidin-5-yl)-5-((R)-6-oxaspiro[2.5]octan-1-yl)-4H-1,2,4-triazol-3-yl)-1-methoxypropane-2-sulfonamide or (1R,2S)-1-(5-chloropyrimidin-2-yl)-N-(4-(4,6-dimethoxypyrimidin-5-yl)-5-((S)-6-oxaspiro[2.5]octan-1-yl)-4H-1,2,4-triazol-3-yl)-1-methoxypropane-2-sulfonamide [Example 102.0]”, the EC50 was 160 nM.

For `COc1cccc(OC)c1-n1c(NS(=O)(=O)[C@@H](C)[C@H](OC)c2cnc(C)cn2)nnc1C1CCC1` [Example 138.0], the 50% effective concentration (EC50) is 27 nM.

With `COc1ncnc(OC)c1-n1c(NS(=O)(=O)[C@@H](C)[C@H](OC)c2ncc(C)cn2)nnc1C1CC2(CC2)C1` [Example 200.0], the half-maximal effective concentration (EC50) was 4.6 nM.

As for `COc1ncnc(OC)c1-n1c(NS(=O)(=O)[C@@H](C)[C@H](C)c2ncc(Cl)cn2)nnc1[C@@H]1CC[C@@H]1C(F)F` (stereo in doubt) [Example 166.0], the EC50 is 20 nM.

In the case of `COc1cccc(OC)c1-n1c(NS(=O)(=O)[C@@H](C)[C@H](OC)c2ncc(Cl)cn2)nnc1C12CC(C1)C2` [Example 217.0], the EC50 was 7.4 nM.

As to `COCC1(n2c(NS(=O)(=O)[C@@H](C)[C@H](OC)c3ncc(Cl)cn3)nnc2[C@H]2C[C@H](CO)C2)CC1` (single isomer, unassigned) [Example 133.0, (1R,2S)-1-(5-chloro-2-pyriminidyl)-N-(5-(trans-3-(hydroxymethyl)cyclobutyl)-4-(1-(methoxymethyl)cyclopropyl)-4H-1,2,4-triazol-3-yl)-1-methoxy-2-propanesulfonamide or (1R,2S)-1-(5-chloro-2-pyrimidinyl)-N-(5-(cis-3-(hydroxymethyl)cyclobutyl)-4-(1-(methoxymethyl)cyclopropyl)-4H-1,2,4-triazol-3-yl)-1-methoxy-2-propanesulfonamide], the EC50 was 120 nM.

For `COc1cccc(OC)c1-n1c(NS(=O)(=O)[C@@H](C)[C@H](OC)c2ncc(Cl)cn2)nnc1[C@H]1C[C@H](OC)C1` (single isomer, unassigned) [Example 156.0, (1R,2S)-1-(5-chloropyrimidin-2-yl)-N-(4-(2,6-dimethoxyphenyl)-5-((1r,3S)-3-methoxycyclobutyl)-4H-1,2,4-triazol-3-yl)-1-methoxypropane-2-sulfonamide or (1R,2S)-1-(5-chloropyrimidin-2-yl)-N-(4-(2,6-dimethoxyphenyl)-5-((1s,3R)-3-methoxycyclobutyl)-4H-1,2,4-triazol-3-yl)-1-methoxypropane-2-sulfonamide], the EC50 was found to be 11 nM.

For the compound `COc1ncnc(OC)c1-n1c(NS(=O)(=O)[C@@H](C)[C@H](OC)c2cnc(C)cn2)nnc1C1CCC1` [Example 82.0, (1R,2S)-N-(5-cyclobutyl-4-(4,6-dimethoxy-5-pyrimidinyl)-4H-1,2,4-triazol-3-yl)-1-methoxy-1-(5-methyl-2-pyrazinyl)-2-propanesulfonamide], the concentration for a half-maximal effect (EC50) amounted to 50 nM.

With `COc1cccc(OC)c1-n1c(NS(=O)(=O)[C@@H](C)[C@H](OC)c2ncc(Cl)cn2)nnc1[C@H]1CC(=O)C1(C)C` (single isomer, unassigned) [Example 196.0, (1R,2S)-1-(5-chloropyrimidin-2-yl)-N-(4-(2,6-dimethoxyphenyl)-5-((R)-2,2-dimethyl-3-oxocyclobutyl)-4H-1,2,4-triazol-3-yl)-1-methoxypropane-2-sulfonamide or (1R,2S)-1-(5-chloropyrimidin-2-yl)-N-(4-(2,6-dimethoxyphenyl)-5-((S)-2,2-dimethyl-3-oxocyclobutyl)-4H-1,2,4-triazol-3-yl)-1-methoxypropane-2-sulfonamide], the EC50 worked out at 330 nM.

Take `COc1ncnc(OC)c1-n1c(NS(=O)(=O)[C@@H](C)[C@H](OC)c2ncc(Cl)cn2)nnc1[C@H]1C[C@@H](Cl)C1` (single isomer, unassigned) [Example 164.0, (1R,2S)-1-(5-chloropyrimidin-2-yl)-N-(4-(4,6-dimethoxypyrimidin-5-yl)-5-((1s,3R)-3-chlorocyclobutyl)-4H-1,2,4-triazol-3-yl)-1-methoxypropane-2-sulfonamide or (1R,2S)-1-(5-chloropyrimidin-2-yl)-N-(4-(4,6-dimethoxypyrimidin-5-yl)-5-((1r,3S)-3-chlorocyclobutyl)-4H-1,2,4-triazol-3-yl)-1-methoxypropane-2-sulfonamide]: the EC50 came out at 0.54 nM.

Consider `CO[C@H](c1ncc(Cl)cn1)[C@H](C)S(=O)(=O)Nc1nnc([C@H]2C[C@H](CO)C2)n1C(C)C` (single isomer, unassigned) [Example 136.0, (1R,2S)-1-(5-chloro-2-pyrimidinyl)-N-(5-trans-3-(hydroxymethyl)cyclobutyl)-4-(2-propanyl)-4H-1,2,4-triazol-3-yl)-1-methoxy-2-propanesulfonamide or (1R,2S)-1-(5-chloro-2-pyrimidinyl)-N-(5-(cis-3-(hydroxymethyl)cyclobutyl)-4-(2-propanyl)-4H-1,2,4-triazol-3-yl)-1-methoxy-2-propanesulfonamide], for which the 50% effective concentration (EC50) turned out to be 3200 nM.

One may read the EC50 as the concentration needed to bring the measured effect to its halfway point.
